From patent publication US8653110B2, “Active compound combination comprising azadirachtin and a substituted enaminocarbonyl compound” (Bayer CropScience AG, priority 2010, dated 2014)

Key:
Type in all cases: in vivo
[1] = test system: Trialeurodes vaporariorum; experiment: Whiteflies on tomatoes, further test (Example 6)
Description: This example describes a further test with the formulation according to the invention against whiteflies (Trialeurodes vaporariorum) on tomatoes (Lycopersicon esculentum). The test was carried out under GEP according to EPPO guideline PP 1/36(2) with 4 repetitions of in each case 5 plants. At the start of the infection, the plants were treated as follows: • 1. untreated • 2. compound (I-1) as SL 200 (compound according to formula (I-1), 17% strength), 50 g of active compound/ha • 3. azadirachtin 15 g of active compound/ha, NeemAzal® • 4. azadirachtin 5 g of active compound/ha, NeemAzal® 5. compound (I-1) as SL 200+azadirachtin, 50+15 g of active compound/ha • 6. compound (I-1) as SL 200+azadirachtin, 50+5 g of active compound/ha • 7. positive control imidacloprid 100 g of active compound/ha
The spray solution was prepared by mixing commercial formulations and using water to adjust to the concentration mentioned. The application rate was 1000 l/ha. 2 applications were carried out at intervals of 10 days. The number of adult flies and the number of larvae were scored on days 2 to 32 after the first application. What is shown is the effect of the products, which becomes evident in a reduction of the number of insects or larvae compared to the untreated control. Imidacloprid was also tested, as positive control.

Tetranychus urticae = experiment: Greenhouse red spider mite on roses (Example 7)
Description: Example 7 describes the effect of the combination according to the invention on the greenhouse red spider mite (Tetranychus urticae) on roses. The test was carried out in a greenhouse under GEP according to EPPO guideline PP 1/168(2) with 4 repetitions of in each case 4 plants. At the start of the infection, the plants were treated as follows: • 1. untreated • 2. compound (I-1) as SL 200 (compound according to formula (I-1), 17% strength), 50 g of active compound/ha • 3. azadirachtin 30 g of active compound/ha, NeemAzal® • 4. azadirachtin 5 g of active compound/ha, NeemAzal® • 5. compound (I-1) as SL 200+azadirachtin, 50+30 g of active compound/ha • 6. compound (I-1) as SL 200+azadirachtin, 50+5 g of active compound/ha • 7. positive control imidacloprid 100 g of active compound/ha
The spray solution was prepared by mixing commercial formulations and using water to adjust to the concentration mentioned. The application rate was 1000 l/ha. 2 applications were carried out at intervals of 14 days. The number of spider mites on days 2 to 32 after the first application was scored. What is shown is the effect of the products, which becomes evident in a reduction of the number of spider mites compared to the untreated control.

Spodoptera exigua = Spodoptera exigua caterpillars on carnations, feeding damage (Example 1)
Description: Example 1 describes the effect of the combination according to the invention on caterpillars of the owlet moth (Spodoptera exigua) on carnations (Dianthus caryophyllus). Azadirachtin was employed as NeemAzal® from Trifolio GmbH. The test was carried out according to EPPO guidelines PP 1/152 (2), PP 1/181 (3), PP 1/135 (3) and PP 1/210 (1) with 4 repetitions of in each case 10 plants. At the start of the infection, the plants were treated as follows: • 1. untreated • 2. compound (I-1) as SL 200 (17% strength), 150 g of active compound/ha • 3. azadirachtin 30 g of active compound/ha • 4. compound (I-1) as SL 200+azadirachtin, 150+30 g of active compound/ha • 5. positive control: imidacloprid 100 g of active compound/ha
The spray solution was prepared by mixing commercial formulations and using water to adjust to the concentration mentioned. The application rate was 1000 l/ha. 3 Applications were carried out at intervals of 10-14 days. The feeding damage caused by the caterpillars on the carnation leaves was scored at weekly intervals.

Spodoptera frugiperda = experiment: Fall armyworm caterpillars on maize, feeding damage (Example 8); settings: reduction of feeding damage
Phyllotreta nigripes = experiment: Turnip flea beetle on cabbage (Example 10); settings: (I-1) 150, azadirachtin 30, (I-1)+azadirachtin 150+30, imidacloprid 100 g/ha
Description: Example 10 describes the effect of the combination according to the invention on caterpillars of the turnip flea beetle Phyllotreta nigripes on cabbage. The test was carried out according to EPPO guidelines PP 1/210(1), PP 1/152 (2), PP 1/181 (3) and PP 1/135 with 4 repetitions of in each case 10 plants. The plants were treated as follows: • 1. untreated • 2. compound (I-1) as SL 200 (compound according to formula (I-1), 17% strength), 150 g of active compound/ha • 3. azadirachtin 30 g of active compound/ha, NeemAzal® • 4. compound (I-1) as SL 200+azadirachtin, 150+30 g of active compound/ha • 5. positive control imidacloprid 100 g of active compound/ha
The spray solution was prepared by mixing commercial formulations and using water to adjust to the concentration mentioned. The application rate was 1000 l/ha. 2 applications were carried out at intervals of 14 days. The number of live caterpillars on days 7 to 32 after the first application was scored. What is shown is the effect of the products, which becomes evident in a reduction of the number of caterpillars compared to the untreated control.

[2] = Day 2, (I-1) 50, azadirachtin 15, (I-1)+azadirachtin 50+15, imidacloprid 100 g/ha
[3] = Day 2, azadirachtin 5, (I-1)+azadirachtin 50+5 g/ha
[4] = Day 7, (I-1) 50, azadirachtin 15, (I-1)+azadirachtin 50+15, imidacloprid 100 g/ha
[5] = Day 7, azadirachtin 5, (I-1)+azadirachtin 50+5 g/ha
[6] = Day 14, (I-1) 50, azadirachtin 15, (I-1)+azadirachtin 50+15, imidacloprid 100 g/ha
[7] = Day 14, azadirachtin 5, (I-1)+azadirachtin 50+5 g/ha
[8] = Day 21, (I-1) 50, azadirachtin 15, (I-1)+azadirachtin 50+15, imidacloprid 100 g/ha
[9] = Day 21, azadirachtin 5, (I-1)+azadirachtin 50+5 g/ha
[10] = Days 28-32, (I-1) 50, azadirachtin 15, (I-1)+azadirachtin 50+15, imidacloprid 100 g/ha
[11] = Days 28-32, azadirachtin 5, (I-1)+azadirachtin 50+5 g/ha
[12] = Day 7, (I-1) 50, azadirachtin 30, (I-1)+azadirachtin 50+30, imidacloprid 100 g/ha
[13] = Day 14, (I-1) 50, azadirachtin 30, (I-1)+azadirachtin 50+30, imidacloprid 100 g/ha
[14] = Day 21, (I-1) 50, azadirachtin 30, (I-1)+azadirachtin 50+30, imidacloprid 100 g/ha
[15] = Days 28-32, (I-1) 50, azadirachtin 30, (I-1)+azadirachtin 50+30, imidacloprid 100 g/ha

Q: `C/C=C(\C)C(=O)O[C@H]1C[C@@H](OC(C)=O)[C@@]2(C(=O)OC)CO[C@H]3[C@@H](O)[C@@](C)([C@]45O[C@@]4(C)[C@H]4C[C@@H]5O[C@@H]5OC=C[C@@]54O)[C@H]4[C@]1(CO[C@]4(O)C(=O)OC)[C@@H]32` [azadirachtin] was tested. Which “Activity against adults [%]” value [1, 2] did it give?
A: 57%

Q: What about the “Activity against larvae [%]” value [1, 2] of the same compound?
A: 0%

Q: And the “Activity against adults [%]” value [1, 3]?
A: 41%

Q: What about the “Activity against larvae [%]” value [1, 3] of the same compound?
A: 0%

Q: And the “Activity against adults [%]” value [1, 4]?
A: 64%

Q: What about the “Activity against larvae [%]” value [1, 4] of the same compound?
A: 0%

Q: And the “Activity against adults [%]” value [1, 5]?
A: 41%

Q: And the “Activity against larvae [%]” value [1, 5]?
A: 0%

Q: What about the “Activity against adults [%]” value [1, 6] of the same compound?
A: 65%

Q: What about the “Activity against larvae [%]” value [1, 6] of the same compound?
A: 20%

Q: What about the “Activity against adults [%]” value [1, 7] of the same compound?
A: 40%

Q: What about the “Activity against larvae [%]” value [1, 7] of the same compound?
A: 0%

Q: What about the “Activity against adults [%]” value [1, 8] of the same compound?
A: 76%

Q: And the “Activity against larvae [%]” value [1, 8]?
A: 32%

Q: And the “Activity against adults [%]” value [1, 9]?
A: 47%

Q: And the “Activity against larvae [%]” value [1, 9]?
A: 0%

Q: What about the “Activity against adults [%]” value [1, 10] of the same compound?
A: 76%

Q: What about the “Activity against larvae [%]” value [1, 10] of the same compound?
A: 37%

Q: What about the “Activity against adults [%]” value [1, 11] of the same compound?
A: 40%

Q: What about the “Activity against larvae [%]” value [1, 11] of the same compound?
A: 0%

Q: What about the “Activity against Tetranychus urticae [%]” value (Tetranychus urticae; Day 2, (I-1) 50, azadirachtin 30, (I-1)+azadirachtin 50+30, imidacloprid 100 g/ha) of the same compound?
A: 21%

Q: What about the “Activity against Tetranychus urticae [%]” value (Tetranychus urticae; [3]) of the same compound?
A: 30%

Q: What about the “Activity against Tetranychus urticae [%]” value (Tetranychus urticae; [12]) of the same compound?
A: 16%

Q: What about the “Activity against Tetranychus urticae [%]” value (Tetranychus urticae; [5]) of the same compound?
A: 0%

Q: And the “Activity against Tetranychus urticae [%]” value (Tetranychus urticae; [13])?
A: 20%

Q: And the “Activity against Tetranychus urticae [%]” value (Tetranychus urticae; [7])?
A: 10%

Q: What about the “Activity against Tetranychus urticae [%]” value (Tetranychus urticae; [14]) of the same compound?
A: 7%

Q: And the “Activity against Tetranychus urticae [%]” value (Tetranychus urticae; [9])?
A: 19%

Q: And the “Activity against Tetranychus urticae [%]” value (Tetranychus urticae; [15])?
A: 0%

Q: What about the “Activity against Tetranychus urticae [%]” value (Tetranychus urticae; [11]) of the same compound?
A: 6%

Q: And the “Day 7 reduction of feeding damage in %” value (Spodoptera exigua; Day 7, (I-1) 150, azadirachtin 30, (I-1)+azadirachtin 150+30, imidacloprid 100 g of active compound/ha)?
A: 0%

Q: What about the “Day 32 reduction of feeding damage in %” value (Spodoptera exigua; Day 32, (I-1) 150, azadirachtin 30, (I-1)+azadirachtin 150+30, imidacloprid 100 g of active compound/ha) of the same compound?
A: 92%

Q: And the “Day 40 reduction of feeding damage in %” value (Spodoptera exigua; Day 40, (I-1) 150, azadirachtin 30, (I-1)+azadirachtin 150+30, imidacloprid 100 g of active compound/ha)?
A: 100%

Q: What about the “Activity against Spodoptera frugiperda [%]” value (Spodoptera frugiperda; [12]) of the same compound?
A: 0%

Q: And the “Activity against Spodoptera frugiperda [%]” value (Spodoptera frugiperda; [5])?
A: 0%

Q: What about the “Activity against Spodoptera frugiperda [%]” value (Spodoptera frugiperda; [13]) of the same compound?
A: 7%

Q: What about the “Activity against Spodoptera frugiperda [%]” value (Spodoptera frugiperda; [7]) of the same compound?
A: 29%

Q: And the “Activity against Spodoptera frugiperda [%]” value (Spodoptera frugiperda; [14])?
A: 53%

Q: And the “Activity against Spodoptera frugiperda [%]” value (Spodoptera frugiperda; [9])?
A: 61%

Q: And the “Activity against Spodoptera frugiperda [%]” value (Spodoptera frugiperda; [15])?
A: 84%

Q: What about the “Activity against Spodoptera frugiperda [%]” value (Spodoptera frugiperda; [11]) of the same compound?
A: 77%

Q: What about the “Activity against Spodoptera frugiperda [%]” value (Spodoptera frugiperda; Days 35-42, (I-1) 50, azadirachtin 30, (I-1)+azadirachtin 50+30, imidacloprid 100 g/ha) of the same compound?
A: 80%

Q: And the “Activity against Spodoptera frugiperda [%]” value (Spodoptera frugiperda; Days 35-42, azadirachtin 5, (I-1)+azadirachtin 50+5 g/ha)?
A: 81%

Q: What about the “Activity against Phyllotreta nigripes [%]” value (Phyllotreta nigripes; Day 7) of the same compound?
A: 29%

Q: And the “Activity against Phyllotreta nigripes [%]” value (Phyllotreta nigripes; Days 14-16)?
A: 51%

Q: And the “Activity against Phyllotreta nigripes [%]” value (Phyllotreta nigripes; Days 21-25)?
A: 35%

Q: And the “Activity against Phyllotreta nigripes [%]” value (Phyllotreta nigripes; Days 28-32)?
A: 34%
